PubChem BioAssay (NCI)
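Method: 48-hour compound exposure of cells in 96-well plates, five concentrations, linear interpolation of endpoints. Here, GI50 denotes the concentration required for 50% inhibition of growth. TGI marks complete inhibition of growth.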

Key:
Test in all cases: growth of human tumour cells (NCI), 48 h
M14 melanoma = tested on: M14 melanoma
HOP-92 NSCLC = tested on: HOP-92 NSCLC
UO-31 renal = tested on: UO-31 renal
UACC-62 melanoma = tested on: UACC-62 melanoma
RXF 393 renal = tested on: RXF 393 renal
CAKI-1 renal = tested on: CAKI-1 renal
ACHN renal = tested on: ACHN renal
SF-268 CNS = tested on: SF-268 CNS
MDA-MB-435 = tested on: MDA-MB-435
A498 renal = tested on: A498 renal
IGROV1 ovarian = tested on: IGROV1 ovarian
UACC-257 melanoma = tested on: UACC-257 melanoma
MALME-3M melanoma = tested on: MALME-3M melanoma
TK-10 renal = tested on: TK-10 renal
COLO 205 colon = tested on: COLO 205 colon
HCT-15 colon = tested on: HCT-15 colon
SK-MEL-2 melanoma = tested on: SK-MEL-2 melanoma
LOX IMVI melanoma = tested on: LOX IMVI melanoma
SNB-75 CNS = tested on: SNB-75 CNS
SN12C renal = tested on: SN12C renal
SK-OV-3 ovarian = tested on: SK-OV-3 ovarian
OVCAR-8 ovarian = tested on: OVCAR-8 ovarian
SK-MEL-5 melanoma = tested on: SK-MEL-5 melanoma
MCF7 breast = tested on: MCF7 breast
SNB-19 CNS = tested on: SNB-19 CNS
SF-295 CNS = tested on: SF-295 CNS
CCRF-CEM leukemia = tested on: CCRF-CEM leukemia
HCT-116 colon = tested on: HCT-116 colon
MDA-MB-231 breast = tested on: MDA-MB-231 breast
KM12 colon = tested on: KM12 colon
HL-60(TB) leukemia = tested on: HL-60(TB) leukemia
OVCAR-4 ovarian = tested on: OVCAR-4 ovarian
T-47D breast = tested on: T-47D breast
HS 578T breast = tested on: HS 578T breast
SF-539 CNS = tested on: SF-539 CNS
NCI-H23 lung = tested on: NCI-H23 lung
NCI-H460 lung = tested on: NCI-H460 lung
SR leukemia = tested on: SR leukemia
HOP-62 NSCLC = tested on: HOP-62 NSCLC
PC-3 prostate = tested on: PC-3 prostate
OVCAR-3 ovarian = tested on: OVCAR-3 ovarian
BT-549 breast = tested on: BT-549 breast
DU-145 prostate = tested on: DU-145 prostate
RPMI-8226 leukemia = tested on: RPMI-8226 leukemia
MOLT-4 leukemia = tested on: MOLT-4 leukemia
HT29 colon = tested on: HT29 colon
NCI-H226 lung = tested on: NCI-H226 lung
SK-MEL-28 melanoma = tested on: SK-MEL-28 melanoma
786-0 renal = tested on: 786-0 renal
OVCAR-5 ovarian = tested on: OVCAR-5 ovarian
HCC-2998 colon = tested on: HCC-2998 colon
NCI/ADR-RES ovarian = tested on: NCI/ADR-RES ovarian
NCI-H522 lung = tested on: NCI-H522 lung
A549 NSCLC = tested on: A549 NSCLC
K-562 leukemia = tested on: K-562 leukemia
SW-620 colon = tested on: SW-620 colon
U251 CNS = tested on: U251 CNS

For `Cn1cc(C2=C(c3cn(C)c4cc(C(=O)O)ccc34)C(=O)NC2=O)c2ccccc21`, the GI50 (M14 melanoma) was > 25 µM, the TGI (M14 melanoma) was > 25 µM and the GI50 (HOP-92 NSCLC) was > 25 µM. For the same compound, the TGI (HOP-92 NSCLC) was > 25 µM, the GI50 (UO-31 renal) was > 25 µM and the TGI (UO-31 renal) was > 25 µM. For the same compound, the GI50 (UACC-62 melanoma) was > 25 µM, the TGI (UACC-62 melanoma) was > 25 µM and the GI50 (RXF 393 renal) was > 19.8 µM. The TGI (RXF 393 renal) was > 25 µM, the GI50 (CAKI-1 renal) was > 17.2 µM and the TGI (CAKI-1 renal) was > 25 µM. For the same compound, the GI50 (ACHN renal) was > 25 µM, the TGI (ACHN renal) was > 25 µM and the GI50 (SF-268 CNS) was > 25 µM. The TGI (SF-268 CNS) was > 25 µM, the GI50 (MDA-MB-435) was > 25 µM and the TGI (MDA-MB-435) was > 25 µM. For the same compound, the GI50 (A498 renal) was > 12 µM, the TGI (A498 renal) was > 25 µM and the GI50 (IGROV1 ovarian) was > 25 µM. For the same compound, the TGI (IGROV1 ovarian) was > 25 µM, the GI50 (UACC-257 melanoma) was > 25 µM and the TGI (UACC-257 melanoma) was > 25 µM. For the same compound, the GI50 (MALME-3M melanoma) was > 25 µM, the TGI (MALME-3M melanoma) was > 25 µM and the GI50 (TK-10 renal) was > 25 µM. The TGI (TK-10 renal) was > 25 µM, the GI50 (COLO 205 colon) was > 25 µM and the TGI (COLO 205 colon) was > 25 µM. For the same compound, the GI50 (HCT-15 colon) was > 25 µM, the TGI (HCT-15 colon) was > 25 µM and the GI50 (SK-MEL-2 melanoma) was > 15.5 µM. For the same compound, the TGI (SK-MEL-2 melanoma) was 25 µM, the GI50 (LOX IMVI melanoma) was > 13.9 µM and the TGI (LOX IMVI melanoma) was > 25 µM. For the same compound, the GI50 (SNB-75 CNS) was 4.96 µM, the TGI (SNB-75 CNS) was > 25 µM and the GI50 (SN12C renal) was > 25 µM. For the same compound, the TGI (SN12C renal) was > 25 µM, the GI50 (SK-OV-3 ovarian) was > 25 µM and the TGI (SK-OV-3 ovarian) was > 25 µM. For the same compound, the GI50 (OVCAR-8 ovarian) was > 25 µM, the TGI (OVCAR-8 ovarian) was > 25 µM and the GI50 (SK-MEL-5 melanoma) was > 25 µM. The TGI (SK-MEL-5 melanoma) was > 25 µM, the GI50 (MCF7 breast) was > 25 µM and the TGI (MCF7 breast) was > 25 µM. For the same compound, the GI50 (SNB-19 CNS) was > 25 µM, the TGI (SNB-19 CNS) was > 25 µM and the GI50 (SF-295 CNS) was > 25 µM. For the same compound, the TGI (SF-295 CNS) was > 25 µM, the GI50 (CCRF-CEM leukemia) was > 20.4 µM and the TGI (CCRF-CEM leukemia) was > 25 µM. The GI50 (HCT-116 colon) was > 25 µM, the TGI (HCT-116 colon) was > 25 µM and the GI50 (MDA-MB-231 breast) was > 25 µM. The TGI (MDA-MB-231 breast) was > 25 µM, the GI50 (KM12 colon) was > 25 µM and the TGI (KM12 colon) was > 25 µM. The GI50 (HL-60(TB) leukemia) was > 25 µM, the TGI (HL-60(TB) leukemia) was > 25 µM and the GI50 (OVCAR-4 ovarian) was > 25 µM. The TGI (OVCAR-4 ovarian) was > 25 µM, the GI50 (T-47D breast) was 21.1 µM and the TGI (T-47D breast) was > 25 µM. For the same compound, the GI50 (HS 578T breast) was 5.86 µM, the TGI (HS 578T breast) was > 25 µM and the GI50 (SF-539 CNS) was > 25 µM. For the same compound, the TGI (SF-539 CNS) was > 25 µM, the GI50 (NCI-H23 lung) was > 25 µM and the TGI (NCI-H23 lung) was > 25 µM. For the same compound, the GI50 (NCI-H460 lung) was > 25 µM, the TGI (NCI-H460 lung) was > 25 µM and the GI50 (SR leukemia) was > 13.4 µM. For the same compound, the TGI (SR leukemia) was > 25 µM, the GI50 (HOP-62 NSCLC) was > 25 µM and the TGI (HOP-62 NSCLC) was > 25 µM. The GI50 (PC-3 prostate) was > 25 µM, the TGI (PC-3 prostate) was > 25 µM and the GI50 (OVCAR-3 ovarian) was > 25 µM. The TGI (OVCAR-3 ovarian) was > 25 µM, the GI50 (BT-549 breast) was > 25 µM and the TGI (BT-549 breast) was > 25 µM. The GI50 (DU-145 prostate) was > 25 µM, the TGI (DU-145 prostate) was > 25 µM and the GI50 (RPMI-8226 leukemia) was > 25 µM. For the same compound, the TGI (RPMI-8226 leukemia) was > 25 µM, the GI50 (MOLT-4 leukemia) was > 25 µM and the TGI (MOLT-4 leukemia) was > 25 µM. For the same compound, the GI50 (HT29 colon) was > 25 µM, the TGI (HT29 colon) was > 25 µM and the GI50 (NCI-H226 lung) was > 25 µM. For the same compound, the TGI (NCI-H226 lung) was > 25 µM, the GI50 (SK-MEL-28 melanoma) was > 25 µM and the TGI (SK-MEL-28 melanoma) was > 25 µM. For the same compound, the GI50 (786-0 renal) was > 25 µM, the TGI (786-0 renal) was > 25 µM and the GI50 (OVCAR-5 ovarian) was > 25 µM. The TGI (OVCAR-5 ovarian) was > 25 µM, the GI50 (HCC-2998 colon) was > 25 µM and the TGI (HCC-2998 colon) was > 25 µM. For the same compound, the GI50 (NCI/ADR-RES ovarian) was > 25 µM, the TGI (NCI/ADR-RES ovarian) was > 25 µM and the GI50 (NCI-H522 lung) was > 12.1 µM. The TGI (NCI-H522 lung) was > 20.1 µM, the GI50 (A549 NSCLC) was > 25 µM and the TGI (A549 NSCLC) was > 25 µM. For the same compound, the GI50 (K-562 leukemia) was > 25 µM, the TGI (K-562 leukemia) was > 25 µM and the GI50 (SW-620 colon) was > 25 µM. The TGI (SW-620 colon) was > 25 µM, the GI50 (U251 CNS) was > 25 µM and the TGI (U251 CNS) was > 25 µM.
